Columns and labels:
[1] = biological target: T1, decapping scavenger protein (DcpS) (Homo sapiens, UniProt Q96C86); test: HPLC assay: Ap3A hydrolysed by purified DcpS and slows m7Gp3G cleavage; format: biochemical
T1 construct: His-tagged DcpS
T1 sequence (Q96C86 2-337): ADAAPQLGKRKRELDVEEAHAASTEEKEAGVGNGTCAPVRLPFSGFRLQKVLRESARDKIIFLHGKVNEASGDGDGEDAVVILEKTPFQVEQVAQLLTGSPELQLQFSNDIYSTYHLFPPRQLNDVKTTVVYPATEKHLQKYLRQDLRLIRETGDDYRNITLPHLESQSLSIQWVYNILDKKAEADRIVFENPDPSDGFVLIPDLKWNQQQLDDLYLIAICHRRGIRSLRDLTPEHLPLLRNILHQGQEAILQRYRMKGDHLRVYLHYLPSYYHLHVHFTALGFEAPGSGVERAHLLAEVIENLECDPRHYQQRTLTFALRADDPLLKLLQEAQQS

[2] = biological target: T1, decapping scavenger protein (DcpS); test: HPLC assay: Ap4A hydrolysed by purified DcpS and slows m7Gp3G cleavage; format: biochemical
PGK1 = biological target: T2, PGK1 (Homo sapiens, UniProt P00558); test: fluorescence polarization, direct titration of purified protein; format: binding
T2 sequence (P00558 2-417): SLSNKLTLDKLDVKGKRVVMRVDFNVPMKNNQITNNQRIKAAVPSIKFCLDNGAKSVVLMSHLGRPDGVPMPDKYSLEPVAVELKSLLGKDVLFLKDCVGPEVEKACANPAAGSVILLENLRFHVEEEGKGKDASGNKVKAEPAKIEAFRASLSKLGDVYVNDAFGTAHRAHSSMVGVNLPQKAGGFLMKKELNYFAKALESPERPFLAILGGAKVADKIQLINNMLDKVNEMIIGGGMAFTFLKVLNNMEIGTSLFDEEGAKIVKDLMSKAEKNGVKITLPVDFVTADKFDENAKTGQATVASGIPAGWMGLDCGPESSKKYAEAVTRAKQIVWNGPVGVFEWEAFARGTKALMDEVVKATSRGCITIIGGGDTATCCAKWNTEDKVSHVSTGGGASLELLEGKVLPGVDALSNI

LDHA = LDHA (Homo sapiens, UniProt P00338); test: as above; format: binding
[3] = biological target: T1, decapping scavenger protein (DcpS); test: HPLC cleavage assay with purified DcpS; format: biochemical

Compound: Nc1ncnc2c1ncn2[C@@H]1O[C@H](COP(=O)(O)OP(=O)(O)OP(=O)(O)OC[C@H]2O[C@@H](n3cnc4c(N)ncnc43)[C@H](O)[C@@H]2O)[C@@H](O)[C@H]1O [Ap3A, diadenosine triphosphate]
- HPLC assay: Ap3A hydrolysed by purified DcpS and slows m7Gp3G cleavage [1]: demonstrating that both Ap3A and Ap4A can be cleaved by DcpS

Compound: Nc1ncnc2c1ncn2[C@@H]1O[C@H](COP(=O)(O)OP(=O)(O)OP(=O)(O)OP(=O)(O)OC[C@H]2O[C@@H](n3cnc4c(N)ncnc43)[C@H](O)[C@@H]2O)[C@@H](O)[C@H]1O [Ap4A, diadenosine tetraphosphate]
- HPLC assay: Ap4A hydrolysed by purified DcpS and slows m7Gp3G cleavage [2]: demonstrating that both Ap3A and Ap4A can be cleaved by DcpS

Compound: Nc1ncnc2c1ncn2[C@@H]1O[C@H](COP(=O)(O)OP(=O)(O)OP(=O)(O)OC[C@H]2O[C@@H](n3cnc4c(N)nc(C#CCCCNC(=O)c5ccc6c(c5)C(=O)OC65c6ccc(O)cc6Oc6cc(O)ccc65)nc43)[C@H](O)[C@@H]2O)[C@@H](O)[C@H]1O [F-Ap3A]
- Kd (PGK1): 37.4 ± 1.62 µM
- Kd (LDHA): 35.3 ± 0.69 µM

Compound: C[n+]1cn([C@@H]2O[C@H](COP(=O)(O)OP(=O)([O-])OP(=O)(O)OC[C@H]3O[C@@H](n4cnc5c(=O)[nH]c(N)nc54)[C@H](O)[C@@H]3O)[C@@H](O)[C@H]2O)c2nc(N)[nH]c(=O)c21 [m^7Gp3G]
- HPLC cleavage assay with purified DcpS [3]: HPLC profiles for the hydrolysis of m^7Gp3G (peak c) catalyzed by DcpS

Source: article PMC8490401, “Chemical proteomic profiling reveals protein interactors of the alarmones diadenosine triphosphate and tetraphosphate” (Nature Communications, 2021)
